Results: patent publication US8217084B2, “Medicinal products incorporating bound organosulfur groups” (Allium Vitalis Incorporated, priority 2004, dated 2012)
Entries after “also recorded” stand apart in the source; their conditions may differ. Read-outs that look alike come from different tables or passages of the source.

Tests used:
[1] = in vivo; cited from earlier work
[2] = cited from earlier work
[3] = after 25 g fresh garlic or 60 mg pure allicin; cited from earlier work
[4] = n-octanol/water (stated for DADS); cited from earlier work
[5] = Reaction with hydrogen peroxide, HPLC
Source text: Hydrogen peroxide (H2O2) was chosen for use as the model oxidant because it is readily available, sufficiently reactive to produce the desired effects, and sufficiently stable to be readily observed. The availability of an inexpensive real-time probe for H2O2 measurement (the ABD-3001, which could be leased by the month from Universal Sensors Inc.) was also a consideration.
The specific ability of allyl mercaptan in this regard was deemed worthy of being experimentally investigated because further experiments were planned that would rely on this ability. […] Therefore, HPLC alone was used to measure the reactants and products.
In FIG. 7, the concentrations are reported as “uM allyl” to take into account the fact that each DADS molecule contains two allyl groups, while each AllylSH molecule has only one.
Another experiment was performed at approximate body temperature (37 degrees C.) and calculated membrane AllylSH concentration.

[6] = pH dependence of reaction rate with cysteine
CYP2E1 enzyme = CYP2E1 enzyme (Rattus norvegicus, UniProt P05182); settings: cited from earlier work
Sequence of CYP2E1 enzyme (P05182 whole entry): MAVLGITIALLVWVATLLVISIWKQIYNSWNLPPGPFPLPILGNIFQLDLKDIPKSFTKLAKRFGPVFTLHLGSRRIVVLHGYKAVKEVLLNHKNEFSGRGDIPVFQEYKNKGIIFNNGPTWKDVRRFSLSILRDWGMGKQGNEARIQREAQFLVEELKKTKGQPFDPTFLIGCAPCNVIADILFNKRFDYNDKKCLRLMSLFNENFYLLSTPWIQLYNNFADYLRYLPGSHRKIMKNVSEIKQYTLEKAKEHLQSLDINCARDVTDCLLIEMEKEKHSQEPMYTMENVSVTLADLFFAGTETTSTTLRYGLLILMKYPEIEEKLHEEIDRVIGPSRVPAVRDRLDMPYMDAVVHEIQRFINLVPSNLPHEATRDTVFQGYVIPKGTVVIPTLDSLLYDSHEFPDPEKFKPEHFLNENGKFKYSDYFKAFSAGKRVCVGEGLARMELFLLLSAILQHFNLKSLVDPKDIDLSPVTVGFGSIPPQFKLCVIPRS

CYP2D6 = settings: in 30 minutes; cited from earlier work
LDL = settings: cited from earlier work
[7] = chemiluminescence assay; cited from earlier work
[8] = tested on: total glutathione level of cells; settings: cited from earlier work
[9] = cited from earlier work; remark: listed apart in the source
[10] = in vivo; cited from earlier work; remark: listed apart in the source
[11] = cited from earlier work; for pKa: thiol group
nematodes = settings: cited from earlier work
E-coli O157:H7 = settings: cited from earlier work
papain = biological target: T1, papain (Carica papaya, UniProt P00784); settings: cited from earlier work
T1 sequence (P00784 134-345): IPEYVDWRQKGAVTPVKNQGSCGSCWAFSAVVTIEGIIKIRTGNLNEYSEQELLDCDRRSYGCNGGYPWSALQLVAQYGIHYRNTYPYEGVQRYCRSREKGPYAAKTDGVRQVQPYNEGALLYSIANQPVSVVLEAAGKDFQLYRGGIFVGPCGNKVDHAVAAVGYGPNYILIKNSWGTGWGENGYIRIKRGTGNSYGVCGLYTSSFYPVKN

[12] = tested on: glutathione content of cells; settings: daily dosage of 1000 mg; cited from earlier work

For `C=CCSSC=CC[S+]([O-])CC=C` (mixture of isomers) [ajoene], the “production of breath AMS and acetone” value [1] is listed as “produce both breath AMS and acetone”.

In the case of `C=CCS[S+]([O-])CC=C` (stereo not shown) [Allicin, DiAllylThioSulfinate], the “Reaction in Blood Half-life” value [2] is given as less than 1 min, the “Reaction in Blood Product (moles)” value [2] is given as “(1.6) moles” and the “time to metabolize to allyl mercaptan” value ([2]; red blood cells exposed to allicin) is given as “less than one minute”. For the same compound, the “detectability in blood, urine, or stool” value [3] was “undetectable” and the partition coefficient [4] was 12.3.

With `C=CCS` [AllylSH, AllylThiol] the “formation of diallyl disulfide” value ([5]; 0.85 mM AllylSH, 10 mM H2O2, 15 minute) was “essentially linear with time”.

With `C=CCSSCC=C` [DADS, Diallyl Disulfide] the allicin yield ([5]; 0.2 mM DADS, 0.022 mM AllylSH, 5.0 mM H2O2, 37 degrees C., 11 minutes) was 0.015 mM, the “rate of allicin formation” value ([5]; 0.2 mM DADS, 5.0 mM H2O2, room temperature, no AllylSH) was “essentially linear with time” and the “dependence of reaction rate with cysteine on pH” value [6] was “dramatically increasing between pH 8 and 9”. The “Reaction in Blood Half-life” value [2] was 60 min, the “Reaction in Blood Product (moles)” value [2] was “(0.8) moles” and the “production of breath AMS and acetone” value [1] was “produce both breath AMS and acetone”. The partition coefficient [4] was 25.0, the “inhibition of CYP2E1” value (CYP2E1 enzyme) was “potent inhibitor” and the “conversion of DADS to allicin” value (CYP2D6) was “approximately 30%”.

In the case of `C=CCSCC=C` [DAS, diallyl sulfide], the “production of breath AMS and acetone” value [1] is given as “only produces breath acetone”.

In the case of `C=CCSSSCC=C` [DATS, Diallyl Trisulfide], the “Reaction in Blood Half-life” value [2] is listed as 4 min, the “Reaction in Blood Product (moles)” value [2] is listed as “(0.8) moles” and the “production of breath AMS and acetone” value [1] is listed as “produce both breath AMS and acetone”.

In the case of `C=CCSC[C@H](NC(C)=O)C(=O)O` [N-acetyl-S-allylcysteine], the “effect on Cu2+ induced LDL oxidation” value (LDL) is listed as “significantly reduce”.

For `C=CCSC[C@H](N)C(=O)O` [SAC, S-allylcysteine], the “effect on Cu2+ induced LDL oxidation” value (LDL) is given as “significantly reduce” and the “production of breath AMS and acetone” value [1] is given as “produces no breath AMS or acetone”.

In the case of `C=CCSSC[C@H](N)C(=O)O` [SAMC, S-AllylMercaptoCysteine], the “Reaction in Blood Half-life” value [2] is given as 3 min, the “Reaction in Blood Product (moles)” value [2] is given as “(0.8) moles” and the “effect on Cu2+ induced LDL oxidation” value (LDL) is given as “significantly reduce”. The “antioxidant or pro-oxidant activity” value [7] was “most effective antioxidants”, the “bioavailable (ingested)” value [1] was 100% and the “production of breath AMS and acetone” value [1] was “produce both breath AMS and acetone”. For the same compound, the “total glutathione level of cells” value [8] was “significantly increase the total glutathione level of cells; also recorded: significant increases the total glutathione level of cells”, the “protection from acetaminophen poisoning” value ([9]; post treatment, single dose 200 mg/kg) was “protective” and the “protection from acetaminophen poisoning” value ([9]; pretreatment) was “protect mice from acetaminophen poisoning”.

For `Cc1c(C)c2c(c(C)c1O)CC[C@@](C)(CCC[C@H](C)CCC[C@H](C)CCCC(C)C)O2` [alpha-tocopherol], the partition coefficient [4] is given as 550.

In the case of `NCCS` [cysteamine], the radioprotective effect [10] is listed as “effective”.

For `N[C@@H](CS)C(=O)O` [cysteine, Cysteine], the pKa [11] is given as “approximately 8.5”, the pKa ([11]; listed as CySH) is given as 8.44 and the radioprotective effect [10] is given as “effective”.

For `CCCS[S+]([O-])CCC` (stereo not shown) [dipropylthiosulfinate], the nematicidal activity (nematodes) is given as “most effective compound found”.

For `N[C@@H](CCC(=O)N[C@@H](CS)C(=O)NCC(=O)O)C(=O)O` [glutathione, Glutathione], the “antioxidant or pro-oxidant activity” value [7] is listed as “most effective antioxidants”, the “pKa of transformation to thiazoline form” value [11] is listed as 5.3 and the pKa [11] is listed as “approximately 8.5”. The radioprotective effect [10] was “effective”.

In the case of `N[C@@H](CCS)C(=O)O` [homocysteine], the radioprotective effect [10] is given as “effective”.

In the case of `C=CCS[S+](C)[O-]` (stereo not shown) [methyl allyl thiosulfinate], the “activity against E-coli O157:H7” value (E-coli O157:H7) is given as “effective against E-coli O157:H7”.

In the case of `CS[S+](C)[O-]` (stereo not shown) [methyl methane thiosulfinate], the “activity against E-coli O157:H7” value (E-coli O157:H7) is listed as “effective against E-coli O157:H7”.

For `O=[N+]([O-])c1ccc([Se]S(=O)(=O)O)cc1` [selenosulfide, pNO2Ph-Se—SO3^−], the “limit of inhibition of SH-dependent enzyme” value (papain) is listed as roughly 50%.

In the case of `O=C1O[C@H]([C@@H](O)CO)C(O)=C1O` [vitamin C], the “mean percentage decrease of glutathione” value [12] is listed as 60%.

In the case of S-allylcysteine sulfoxide [alliin], the “effect on Cu2+ induced LDL oxidation” value (LDL) is given as “significantly reduce”.

For “SnO2Ph-Se—S—SO3^− [S-aryl selenenylthiosulphate]”, the “inactivation of the enzyme” value (papain; by the first data point) is given as greater than 90%.
